Test systems include Bacillus subtilis; Escherichia coli; Staphylococcus aureus; Candida albicans; Pseudomonas aeruginosa; Acinetobacter baumannii; Klebsiella pneumoniae.
Common to all, as to assay: ≥ marks a high value that may be exact or a test limit, other limits are often not marked, values filed in µg/mL are converted to µM
The subject of test [1] is Staphylococcus aureus ATCC 25923.
The subject of test [2] is Escherichia coli DH5alpha.
Test [3] deals with Enterococcus faecalis ATCC 29212.
Test [4] has as its system Klebsiella pneumoniae ATCC 13883.
Test [5] concerns Salmonella enterica subsp. enterica serovar Typhimurium ATCC 14028.
Test [6] has as its system Pseudomonas aeruginosa ATCC 27853.
For test [7], the system named is Acinetobacter baumannii ATCC 19606.
The test system of test [8] is Escherichia coli ATCC 25922.
The test system of test [9] is Staphylococcus epidermidis ATCC 12228.
Test [10] deals with Staphylococcus aureus ATCC 29213.
Test [11] relates to Salmonella enterica subsp. enterica serovar Typhimurium C77-31.

Converted amounts (≈) assume the structure as drawn. “And” between values parts separate entries of the source, which are not always exact repeats. Identical values can stand only once.

For orientation: MIC means the least concentration at which growth counts as inhibited. Consider `CC[C@H](C)[C@H](NC(=O)CN)C(=O)NCC(=O)N[C@@H](CCCCN)C(=O)N[C@@H](Cc1ccccc1)C(=O)N[C@@H](CC(C)C)C(=O)N[C@@H](CCCCN)C(=O)N[C@@H](CCCCN)C(=O)N[C@@H](C)C(=O)N[C@@H](CCCCN)C(=O)N[C@@H](CCCCN)C(=O)NCC(=O)N[C@H](C(=O)NCC(=O)N[C@@H](C)C(=O)N[C@H](C(=O)N[C@@H](CC(C)C)C(=O)N[C@@H](CCCCN)C(=O)N[C@H](C(=O)N[C@@H](CC(C)C)C(=O)N[C@H](C(=O)N[C@H](C(=O)NCC(=O)N[C@@H](CC(C)C)C(=O)O)[C@@H](C)O)[C@@H](C)O)C(C)C)C(C)C)[C@@H](C)CC` [GIGKFLKKAKKGIGAVLKVLTTGL], for which the minimum inhibitory concentration (MIC) stood at 2 µM (≈ 4.88 µg/mL) in test [1]; 1 µM (≈ 2.44 µg/mL) in test [2]; 64 µM (≈ 156 µg/mL) in test [3]; 1 µM (≈ 2.44 µg/mL) in test [4]; 2 µM (≈ 4.88 µg/mL) in test [5]; 2 µM (≈ 4.88 µg/mL) in [6]. The MIC in the test with Bacillus subtilis is 4 µM (≈ 9.76 µg/mL).

`CC[C@H](C)[C@@H]1NC(=O)[C@H](CC(C)C)NC(=O)[C@H](CCC(N)=O)NC(=O)[C@H](Cc2ccc(O)cc2)NC(=O)[C@H](C)NC(=O)[C@@H](NC(=O)[C@H](CCCCN)NC(=O)[C@@H](NC(=O)[C@H](CC(C)C)NC(=O)[C@@H](NC(=O)[C@H](Cc2ccccc2)NC(=O)[C@H](CC(C)C)NC(=O)CN)[C@@H](C)O)[C@@H](C)CC)CSSC[C@@H](C(=O)N[C@@H](CC(N)=O)C(=O)O)NC(=O)[C@H](C)NC(=O)[C@H](C(C)C)NC(=O)[C@H]([C@@H](C)O)NC(=O)[C@@H]2CCCN2C(=O)[C@H](C)NC1=O` [GLFTLIKCAYQLIAPTVACN]: the MIC against Escherichia coli stood at 16.6 µM (≈ 35.6 µg/mL); in the test on Staphylococcus aureus it was 8.32 µM (≈ 17.8 µg/mL); against Candida albicans it was 4.16 µM (≈ 8.89 µg/mL); against Bacillus subtilis it was 16.6 µM (≈ 35.6 µg/mL).

As to `CC[C@H](C)[C@H](NC(=O)[C@@H](N)CCCCN)C(=O)N[C@@H](C)C(=O)N[C@@H](CC(C)C)C(=O)N[C@@H](CCCCN)C(=O)N[C@@H](C)C(=O)N[C@@H](CC(C)C)C(=O)N[C@@H](CCCCN)C(=O)N[C@@H](C)C(=O)N[C@@H](CC(C)C)C(=O)N[C@@H](CCCCN)C(=O)N[C@@H](C)C(=O)N[C@@H](CC(C)C)C(=O)NCC(=O)N[C@@H](CCCCN)C(=O)N[C@@H](C)C(=O)N[C@@H](CC(C)C)C(=O)N[C@@H](CCCCN)C(=O)N[C@@H](C)C(=O)N[C@@H](CC(C)C)C(N)=O` [KIALKALKALKALGKALKAL], the MIC is 32 µM (≈ 66 µg/mL) with Pseudomonas aeruginosa; 2 µM (≈ 4.12 µg/mL) in test [7]; 32 µM (≈ 66 µg/mL) in the test with Escherichia coli; 22.6 µM (≈ 46.7 µg/mL) against Acinetobacter baumannii; 2.83 µM (≈ 5.83 µg/mL) in the test with Staphylococcus aureus; 4 µM (≈ 8.25 µg/mL) in test [1]. The MIC against Klebsiella pneumoniae is 22.6 µM (≈ 46.7 µg/mL); in test [4], 2.83 µM (≈ 5.83 µg/mL); in test [8], 1.41 µM (≈ 2.92 µg/mL); in test [6] it was 11.3 µM (≈ 23.3 µg/mL).

`CC(C)C[C@H](NC(=O)[C@H](CCCN=C(N)N)NC(=O)[C@H](CC(N)=O)NC(=O)[C@H](C)NC(=O)[C@H](CCCN=C(N)N)NC(=O)[C@H](CC(C)C)NC(=O)[C@H](Cc1c[nH]c2ccccc12)NC(=O)[C@H](CC(C)C)NC(=O)[C@H](CCCN=C(N)N)NC(=O)[C@H](CCCN=C(N)N)NC(=O)[C@H](CC(C)C)NC(=O)[C@H](CC(C)C)NC(=O)[C@H](CCCN=C(N)N)NC(=O)[C@H](CC(N)=O)NC(=O)[C@H](C)NC(=O)[C@H](CCCN=C(N)N)NC(=O)[C@H](CC(C)C)NC(=O)[C@H](Cc1c[nH]c2ccccc12)NC(=O)[C@H](CC(C)C)NC(=O)[C@H](CCCN=C(N)N)NC(=O)[C@H](CCCN=C(N)N)NC(=O)[C@@H](N)CC(C)C)C(N)=O` [LRRLWLRANRLLRRLWLRANRL]: the MIC in test [3] is 2 µM and 4 µM; in test [9] it was 2 µM and 4 µM; in test [10], 2 µM and 4 µM; in test [8], 4 µM (≈ 11.7 µg/mL); in test [6], 4 µM (≈ 11.7 µg/mL); in test [11], 2 µM and 4 µM.

The values above are taken from DBAASP.
